Counter-ions that a name gives are not always drawn.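 1) Cells in 96-well plates. 2) Compound, 48 h, 5 concentrations. 3) Linear interpolation between surrounding doses. 4) Unreached endpoint = highest concentration. GI50 is the concentration that inhibits growth by half.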 The source made the active and inactive calls. Cut-off read from the data, not from the text of the source: active = GI50 up to about 1.1 µM and inactive = higher.
What was measured:
Assay in all cases: NCI anticancer screen, dose series, 48 h
DMS-273 = system: DMS-273
M19-MEL = system: M19-MEL
DLD-1 = system: DLD-1
HOP-18 = system: HOP-18
XF498 = system: XF498
RXF 631 = system: RXF 631
Hs-578T = system: Hs-578T
T47D = system: T47D
BT-549 = system: BT-549

Measured: GI50

C=CCCCC(C#N)(c1ccccc1)N1CCCC1 (stereo not drawn)
inactive: DMS-273 > 100 µM | M19-MEL > 100 µM

Cc1cccc(C2=C/C(=C(\SS/C(C(=O)c3ccc(OCC(=O)O)c(Cl)c3Cl)=C3\C=C(c4cccc(C)c4)SS3)C(=O)c3ccc(OCC(=O)O)c(Cl)c3Cl)SS2)c1
inactive: DLD-1 27.4 µM | DMS-273 31.3 µM | HOP-18 12.8 µM | M19-MEL 19.1 µM | XF498 7.98 µM

O=C(Nc1cccc(O)c1)C(=O)C(C(=O)c1ccc(Cl)c(Cl)c1)C1OC(=O)c2ccccc21 (stereo not drawn)
inactive: DMS-273 10.1 µM | HOP-18 25.5 µM | M19-MEL 12.4 µM | XF498 10.9 µM

N#CC(C#N)=C1NC(=O)CC(=O)N1
inactive: DLD-1 > 100 µM | DMS-273 > 100 µM | M19-MEL > 100 µM | XF498 > 100 µM

Cn1c(=O)c2c3ccccc3c(C(=O)c3ccccc3)n2c2ccccc21
inactive: DLD-1 8.24 µM | DMS-273 3.27 µM | HOP-18 18.7 µM | M19-MEL 3.68 µM | XF498 > 50.9 µM

Oc1cccc2c1NC1=C(CCC/C1=C\c1ccccc1)C2
inactive: DMS-273 66.7 µM | M19-MEL 55.8 µM | XF498 57.1 µM

CCOC(=O)C(C)(C)Oc1ccc2c(-c3ccc(Cl)cc3)c(-c3ccc(Cl)cc3)c(=O)oc2c1
inactive: DLD-1 > 100 µM | DMS-273 > 100 µM | M19-MEL > 100 µM | RXF 631 > 100 µM

Cc1ccc(NC(=O)C2C3CCC(O3)C2C(=O)O)cc1 (stereo not drawn)
inactive: DLD-1 > 54.1 µM | DMS-273 > 57.8 µM | HOP-18 > 86.3 µM | M19-MEL > 61.2 µM | RXF 631 53.7 µM | XF498 22.6 µM

CN1CCN(CCn2c3c4ccccc4ccc3c3oc(=O)c4ccccc4c32)CC1
inactive: DLD-1 2.28 µM | HOP-18 12.6 µM | Hs-578T 4.79 µM | M19-MEL 10.8 µM | RXF 631 5.19 µM | T47D > 10 µM

C[C@@H](CO)OCOCc1ccccc1
inactive: DLD-1 > 100 µM | DMS-273 > 100 µM | M19-MEL > 100 µM | XF498 > 100 µM

Cc1cc2c(=O)cc(-c3ccncc3)oc2c(C(=O)O)c1C
inactive: DMS-273 > 100 µM | HOP-18 > 100 µM | M19-MEL > 100 µM | RXF 631 > 100 µM | XF498 > 100 µM

NNC(=O)N/N=C1\CNC(=O)C(=O)C1c1nc2ccccc2s1 (stereo not drawn)
inactive: DLD-1 > 100 µM | DMS-273 > 100 µM | M19-MEL > 100 µM | XF498 > 100 µM

COC(=O)C(=O)C(C(=O)C(=O)Nc1ccc([N+](=O)[O-])cc1)c1nc2ccccc2nc1O (stereo not drawn)
inactive: DLD-1 > 100 µM | DMS-273 47.1 µM | HOP-18 > 100 µM | M19-MEL > 100 µM | RXF 631 > 100 µM | XF498 > 100 µM

Cc1c(C(=O)C/C(=N/NC(=O)C[n+]2ccccc2)C(=O)Nc2ccccc2)[n+]([O-])c2ccccc2[n+]1[O-]
inactive: DLD-1 > 100 µM | DMS-273 > 100 µM | HOP-18 > 100 µM | M19-MEL > 100 µM | RXF 631 > 100 µM | XF498 > 100 µM

Cc1ccc(NC(=O)CC(=O)n2nc(-c3ccccc3)c(/N=N/c3ccc(Cl)cc3)c2-c2ccccc2)cc1
inactive: DLD-1 15.3 µM | DMS-273 83.8 µM | HOP-18 39 µM | M19-MEL 22 µM | RXF 631 > 100 µM

Cc1cccc(C)c1NC(=O)CCCC(=O)C(C#N)c1ccc(Cl)cc1 (stereo not drawn)
inactive: DLD-1 > 100 µM | DMS-273 > 100 µM | HOP-18 > 100 µM | M19-MEL > 100 µM

CCC(CO)COC(=O)/C=C/C(=O)OCC(CC)CO (stereo not drawn)
inactive: DLD-1 > 85.9 µM | DMS-273 > 100 µM | HOP-18 > 100 µM | M19-MEL > 100 µM | RXF 631 > 100 µM | XF498 > 100 µM

Cc1cccc(C(C)C)c1NC(=O)CCl
inactive: DLD-1 65 µM | DMS-273 69.2 µM | HOP-18 53.7 µM | M19-MEL 51.6 µM

Cc1ccc(S(=O)(=O)OC(C=O)C(O)C(O)COC(c2ccccc2)(c2ccccc2)c2ccccc2)cc1 (stereo not drawn)
active: RXF 631 0.46 µM
inactive: DMS-273 21.9 µM | M19-MEL 13.1 µM | XF498 15.8 µM

C[Si]12OCCCN(CCO1)CCO2
inactive: DLD-1 > 100 µM | DMS-273 > 100 µM | M19-MEL > 100 µM

N#Cc1ccc(Nc2cnc3ccc(N)cc3n2)cc1
inactive: DLD-1 > 100 µM | DMS-273 > 100 µM | M19-MEL > 100 µM | XF498 > 100 µM

O=C(Nc1cccc(Cl)c1)c1cc2cc(/N=N/c3ccc(Br)cc3)ccc2oc1=O
inactive: DLD-1 40 µM | DMS-273 21.3 µM | HOP-18 63.2 µM | M19-MEL > 10 µM | RXF 631 68.1 µM | XF498 46.8 µM

CSCC(COC(C)=O)(CSC)c1ccncc1
inactive: DMS-273 > 100 µM | M19-MEL > 100 µM

COc1c(OC)c(N)c2cc(C)c(=O)c(C)cc2c1N
inactive: DLD-1 55.7 µM | DMS-273 > 100 µM | HOP-18 > 100 µM | M19-MEL > 100 µM | XF498 > 100 µM

OC1CN(OC/C=C/c2ccccc2)CC(O)C1O (stereo not drawn)
inactive: DLD-1 87.3 µM | DMS-273 > 100 µM | HOP-18 > 100 µM | M19-MEL > 100 µM | XF498 > 100 µM

NC(CCSCCF)C(=O)O (stereo not drawn)
inactive: DMS-273 > 100 µM | HOP-18 > 100 µM | M19-MEL > 100 µM

C=C1CC(CCCl)(c2ccccc2)OC1=O (stereo not drawn)
inactive: DLD-1 20.1 µM | DMS-273 34.7 µM | HOP-18 > 42.9 µM | M19-MEL 34.7 µM | RXF 631 > 42.7 µM | XF498 41.2 µM

CCOC(=O)/C(=C/c1ccccc1Br)P(=O)(OCC)OCC
inactive: DLD-1 1.29 µM | DMS-273 1.26 µM | HOP-18 3.34 µM | M19-MEL 1.55 µM | RXF 631 2.5 µM | XF498 1.93 µM

COc1c(OC2OC(CO)C(O)C(O)C2O)cc2c(c1OC)-c1ccc(OC)c(=O)cc1C(NC(C)=O)CC2 (stereo not drawn)
inactive: DLD-1 > 100 µM | DMS-273 > 100 µM | HOP-18 > 100 µM | M19-MEL > 91.2 µM | RXF 631 > 100 µM | XF498 83.6 µM

Cn1cnc([N+](=O)[O-])c1Sc1nnnn1-c1ccccc1
inactive: DLD-1 6.68 µM | DMS-273 15 µM | HOP-18 1.58 µM | M19-MEL 12.1 µM | RXF 631 14.2 µM | XF498 11.6 µM

CC(=O)O[C@@H]1CC[C@@]2(C)C(=O)C34C[C@@]5(C)C([C@@H](C)CCCC(C)C)CCC5(C)[C@](O)(O3)C(=O)[C@H]4C2C1(C)C (stereo partly drawn)
inactive: DLD-1 18 µM | DMS-273 13.4 µM | HOP-18 15.8 µM | M19-MEL 13.8 µM | RXF 631 12.6 µM

C=C1C(=O)OC2C(C)C3C=CC(=O)[C@@]3(C)C(OC(=O)/C(C)=C/C)C1[C@@H]2OC(C)=O (stereo partly drawn)
inactive: HOP-18 1.79 µM | XF498 1.25 µM
active: BT-549 0.28 µM | DLD-1 0.5 µM | DMS-273 0.541 µM | Hs-578T 0.308 µM | M19-MEL 0.547 µM | T47D 0.336 µM

CCCCCC(=O)N[C@H]1CCc2cc(O)c(O)c(O)c2-c2ccc(SC)c(=O)cc21
inactive: DLD-1 19.6 µM | DMS-273 32.5 µM | M19-MEL 19.9 µM

CN[C@@H]1[C@H](O)[C@H](NC)[C@H]2O[C@@]3(O)C(=O)C[C@@H](C)O[C@H]3O[C@@H]2[C@H]1O [SPECTINOMYCIN SULFATE]
inactive: BT-549 > 100 µM | Hs-578T > 100 µM | T47D > 100 µM
